Where a name gives a salt, the structure may show the parent alone.
System: abcB11
Experiment: DT1 microarray drug screening, drug-treated HepG2: abcB11
Format: cell-based, human
Conditions: HepG2, vinblastine sulfate 25 nM, 8 h, standard 24
Protocol: The labelled cDNA target preparation was thawed and the 150 μl added to 850 ul hybridisation buffer (500 mM sodium Phosphate pH 6.0, 1% SDS, 1% BSA, 1 mM EDTA) in a 1.5 ml microtube and heated at 95° C. for 10 min.

## CC[C@]1(O)C[C@@H]2CN(CCc3c([nH]c4ccccc34)[C@@](C(=O)OC)(c3cc4c(cc3OC)N(C)[C@H]3[C@@](O)(C(=O)OC)[C@H](OC(C)=O)[C@]5(CC)C=CCN6CC[C@]43[C@@H]65)C2)C1 [vin, vinblastine sulfate]
  relative level of abcB11 gene expression: 9.053
